Reference: the supplement of paper PMC10307832

Tests used:
Assay in all cases: relative viability (nuclei count vs DMSO), 5 days (fraction); higher = more cells survive
[1] = compound: CN(C)C[C@@H]1CCn2cc(c3ccccc32)C2=C(C(=O)NC2=O)c2cn(c3ccccc23)CCO1 [Ruboxistaurin] + C[C@@H](Oc1cc(-c2cnn(C3CCNCC3)c2)cnc1N)c1c(Cl)ccc(F)c1Cl [Crizotinib] (partner 1 µM)
How it was run: (§1)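 Lung cancer cell lines in 1536-well plates were dosed by pin tool the day after seeding, either with one drug alone or with a fixed anchor-drug dose plus five library-drug doses (not always all listed) in √10 steps. After 5 days, cells were fixed and their nuclei stained in one step (final 0.05% Triton X-100, 1% formaldehyde, 1 ug/ml Hoechst), then counted on 4× images. Relative viability is the nuclei count in treated wells divided by that in vehicle wells. Values are medians of duplicate plates.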

[2] = compound: CN(C)C[C@@H]1CCn2cc(c3ccccc32)C2=C(C(=O)NC2=O)c2cn(c3ccccc23)CCO1 [Ruboxistaurin] + Cc1nc(NC(=O)N2CCC[C@H]2C(N)=O)sc1-c1ccnc(C(C)(C)C(F)(F)F)c1 [Alpelisib] (partner 2 µM)
How it was run: as §1

[3] = compound: CN(C)C[C@@H]1CCn2cc(c3ccccc32)C2=C(C(=O)NC2=O)c2cn(c3ccccc23)CCO1 [Ruboxistaurin] + N=C(N)NC(=N)NCCc1ccccc1 [Phenformin] (partner 250 µM)
How it was run: as §1

[4] = compound: CN(C)C[C@@H]1CCn2cc(c3ccccc32)C2=C(C(=O)NC2=O)c2cn(c3ccccc23)CCO1 [Ruboxistaurin] + COc1cc2c(Oc3ccc(NC(=O)C4(C(=O)Nc5ccc(F)cc5)CC4)cc3F)ccnc2cc1OCCCN1CCOCC1 [Foretinib] (partner 0.25 µM)
How it was run: as §1

Ruboxistaurin + OSI-027 = compound: CN(C)C[C@@H]1CCn2cc(c3ccccc32)C2=C(C(=O)NC2=O)c2cn(c3ccccc23)CCO1 [Ruboxistaurin] + COc1cccc2cc(-c3nc([C@H]4CC[C@H](C(=O)O)CC4)n4ncnc(N)c34)[nH]c12 [OSI-027] (partner 0.5 µM)
How it was run: as §1

Cell Line | relative viability ([1]; first compound 0.08 µM) | relative viability ([1]; first compound 0.8 µM) | relative viability ([1]; first compound 2.53 µM) | relative viability ([1]; first compound 8 µM) | relative viability ([2]; first compound 0.08 µM) | relative viability ([2]; first compound 0.8 µM) | relative viability ([2]; first compound 2.53 µM) | relative viability ([2]; first compound 8 µM) | relative viability ([3]; first compound 0.08 µM) | relative viability ([3]; first compound 0.8 µM) | relative viability ([3]; first compound 2.53 µM) | relative viability ([3]; first compound 8 µM) | relative viability ([4]; first compound 0.08 µM) | relative viability ([4]; first compound 0.8 µM) | relative viability ([4]; first compound 2.53 µM) | relative viability ([4]; first compound 8 µM) | relative viability (Ruboxistaurin + OSI-027; first compound 0.08 µM) | relative viability (Ruboxistaurin + OSI-027; first compound 0.8 µM) | relative viability (Ruboxistaurin + OSI-027; first compound 2.53 µM) | relative viability (Ruboxistaurin + OSI-027; first compound 8 µM)
NCI-H23 | 0.542 | 0.395 | 0.552 | 0.533 | 0.831 | 0.617 | 0.71 | 0.686 | 0.766 | 0.781 | 0.819 | 0.852 | 1 | 0.897 | 1.1 | 0.936 | 0.601 | 0.448 | 0.593 | 0.457
NCI-H322M | 0.96 | 0.863 | 0.949 | 1.11 | 0.811 | 0.74 | 0.818 | 0.67 | 0.838 | 0.67 | 0.656 | 0.455 | 0.947 | 0.922 | 0.981 | 0.627 | 0.646 | 0.514 | 0.514 | 0.377
NCI-H358 | 0.518 | 0.517 | 0.609 | 0.573 | 0.927 | 0.666 | 0.75 | 0.424 | 0.32 | 0.255 | 0.293 | 0.263 | 0.878 | 0.603 | 0.829 | 0.535 | 0.95 | 0.642 | 0.787 | 0.471
NCI-H441 | 0.787 | 0.708 | 0.771 | 0.636 | 0.653 | 0.717 | 0.845 | 0.498 | 0.942 | 0.886 | 0.867 | 0.862 | 0.87 | 0.884 | 1.18 | 0.938 | 0.65 | 0.474 | 0.607 | 0.456
NCI-H460 | 0.772 | 0.822 | 1.02 | 0.537 | 0.398 | 0.324 | 0.26 | 0.137 | 0.535 | 0.497 | 0.533 | 0.485 | 1.03 | 0.904 | 1.08 | 0.996 | 0.604 | 0.557 | 0.501 | 0.217
NCI-H520 | 0.838 | 0.698 | 0.758 | 0.693 | 0.976 | 0.789 | 1.01 | 0.822 | 0.766 | 0.54 | 0.599 | 0.393 | 0.628 | 0.693 | 1.05 | 0.786 | 0.192 | 0.258 | 0.233 | 0.218
NCI-H596 | 1.03 | 0.981 | 1.03 | 0.795 | 0.494 | 0.461 | 0.502 | 0.414 | 0.844 | 0.77 | 0.841 | 0.722 | 0.817 | 0.671 | 0.766 | 0.679 | 0.811 | 0.552 | 0.799 | 0.508
NCI-H647 | 1.03 | 0.849 | 1.15 | 0.995 | 1.2 | 0.995 | 1.06 | 0.899 | 0.656 | 0.483 | 0.599 | 0.409 | 1.27 | 0.832 | 1.19 | 1.32 | 0.754 | 0.532 | 0.432 | 0.42
NCI-H650 | 0.785 | 0.775 | 0.733 | 0.729 | 1.17 | 0.888 | 1.12 | 1.12 | 0.51 | 0.452 | 0.488 | 0.464 | 1.11 | 1.01 | 1.06 | 1.2 | 0.662 | 0.49 | 0.584 | 0.523
NCI-H661 | 0.991 | 0.924 | 1.08 | 1.08 | 0.982 | 0.696 | 0.902 | 0.567 | 0.253 | 0.268 | 0.297 | 0.29 | 1.05 | 0.996 | 1.07 | 1.07 | 0.78 | 0.599 | 0.695 | 0.6
NCI-H727 | 0.789 | 0.696 | 0.693 | 0.745 | 0.543 | 0.485 | 0.527 | 0.368 | 0.565 |  | 0.401 | 0.474 | 1.15 | 0.718 | 0.84 | 0.645 | 0.764 | 0.416 | 0.523 | 0.448
NCI-H838 | 0.899 | 0.729 | 1.03 | 0.817 | 1.13 | 0.903 | 0.966 | 0.852 | 0.628 | 0.467 | 0.592 | 0.454 | 1.13 | 0.923 | 1.19 | 0.998 | 0.4 | 0.33 | 0.301 | 0.313
NCI-H1355 | 1.08 | 1 | 1.04 | 1 | 0.868 | 0.68 | 0.827 | 0.667 | 0.472 | 0.39 | 0.468 | 0.451 | 1.02 | 0.862 | 1.02 | 0.82 | 0.444 | 0.322 | 0.382 | 0.297
NCI-H1437 | 0.984 | 0.829 | 0.958 | 1.08 | 1.12 | 0.868 | 1.03 | 1.02 | 0.328 | 0.278 | 0.298 | 0.322 | 1.29 | 1.21 | 1.37 | 1.38 | 0.985 | 0.793 | 0.835 | 0.804
NCI-H1651 | 0.882 | 0.883 | 0.911 | 0.911 | 1.04 | 0.755 | 0.974 | 0.797 | 0.342 | 0.312 | 0.332 | 0.319 | 1.04 | 0.772 | 0.794 | 0.841 | 0.779 | 0.611 | 0.653 | 0.566
